Results published in patent US20220053762A1, “HERBICIDAL COMPOSITIONS” (Bayer Aktiengesellschaft, priority 2018, published 2022).

Tested on: harmful plant species
Assay: Specific trial examples: binary compositions applied by the post-emergence method, synergistic effect according to Colby (Tables 3.1-3.2)
Assay type: in vivo
Procedure, shortened: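 Mono- and dicot weeds grown from seed or rhizome in sandy loam in greenhouse, sprayed post-emergence at three-leaf stage (three weeks after sowing) with formulated binary mixtures at various doses in 300–800 l/ha water. Efficacy rated at stated days after application; synergy judged versus summed single effects and Colby expected values.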

CONC(=O)C1=C[C@@H](NC(=O)[C@@]2(C)CC(c3cc(F)cc(F)c3)=NO2)CO1 [Compound A5, (5R)-3-(3,5-difluorophenyl)-N-[(3R)-5-(methoxycarbamoyl)-2,3-dihydrofuran-3-yl]-5-methyl-4H-isoxazole-5-carboxamide]
Herbicidal action 14 DAT against Lolium rigidum (resistant biotype) (1 g a.i./ha): 10% | Herbicidal action 14 DAT against Matricaria inodora (1 g a.i./ha): 30% | Herbicidal action 14 DAT against Viola tricolor (1 g a.i./ha): 30% | Herbicidal action 28 DAT against Centaurea cyanus (1 g a.i./ha): 10% | Herbicidal action 28 DAT against Galium aparine (1 g a.i./ha): 30% | Herbicidal action 28 DAT against Lamium purpureum L. (1 g a.i./ha): 40% | Herbicidal action 28 DAT against Matricaria inodora (1 g a.i./ha): 0% | Herbicidal action 28 DAT against Viola tricolor (1 g a.i./ha): 0% | Herbicidal action 14 DAT against Lolium rigidum (resistant biotype) (4 g a.i./ha): 20% | Herbicidal action 14 DAT against Matricaria inodora (4 g a.i./ha): 50% | Herbicidal action 14 DAT against Viola tricolor (4 g a.i./ha): 20% | Herbicidal action 28 DAT against Centaurea cyanus (4 g a.i./ha): 20% | Herbicidal action 28 DAT against Matricaria inodora (4 g a.i./ha): 10% | Herbicidal action 28 DAT against Phalaris minor (4 g a.i./ha): 30% | Herbicidal action 28 DAT against Viola tricolor (4 g a.i./ha): 0% | Herbicidal action 14 DAT against Alopecurus myosuroides (16 g a.i./ha): 70% | Herbicidal action 14 DAT against Lolium rigidum (16 g a.i./ha): 60% | Herbicidal action 14 DAT against Lolium rigidum (resistant biotype) (16 g a.i./ha): 30% | Herbicidal action 14 DAT against Matricaria inodora (16 g a.i./ha): 50% | Herbicidal action 14 DAT against Poa annua L. (16 g a.i./ha): 30% | Herbicidal action 28 DAT against Alopecurus myosuroides (16 g a.i./ha): 40% | Herbicidal action 28 DAT against Centaurea cyanus (16 g a.i./ha): 50% | Herbicidal action 28 DAT against Lamium purpureum L. (16 g a.i./ha): 60% | Herbicidal action 28 DAT against Matricaria inodora (16 g a.i./ha): 20% | Herbicidal action 28 DAT against Phalaris minor (16 g a.i./ha): 40% | Herbicidal action 28 DAT against Viola tricolor (16 g a.i./ha): 10% | Herbicidal action against Lolium rigidum ((Z119) 14 DAT, g a.i./ha: r682 16, r683 30): 60% | Herbicidal action against Phalaris minor ((Z119) 14 DAT, g a.i./ha: r709 4, r710 270): 70% | Herbicidal action against Poa annua L. ((Z119) 14 DAT, g a.i./ha: r729 4, r730 270): 20% | Herbicidal action against Alopecurus myosuroides ((Z119) 28 DAT, g a.i./ha: r642 16, r643 4, r644 90, r645 30, r646 270): 40% | Herbicidal action against Centaurea cyanus ((Z119) 28 DAT, g a.i./ha: r654 16, r655 30): 50% | Herbicidal action against Galium aparine ((Z119) 28 DAT, g a.i./ha: r662 1, r663 270): 30% | Herbicidal action against Lolium rigidum ((Z119) 28 DAT, g a.i./ha: r690 16, r691 30): 30% | Herbicidal action in [%] 28 DAT against Alopecurus myosuroides (post-emergence, single active compound (A5 series), g a.i./ha: r591 16, r592 4, r593 450, r594 150, r595 50): 40% | Herbicidal action in [%] 28 DAT against Bromus sterilis (post-emergence, single active compound (A5 series), g a.i./ha: r617 4, r618 450): 60% | Herbicidal action in [%] 14 DAT against Galium aparine (post-emergence, single active compound (A5 series), g a.i./ha: r649 1, r650 150): 50% | Herbicidal action in [%] 14 DAT against Lamium purpureum L. (post-emergence, single active compound (A5 series), g a.i./ha: r659 1, r660 450): 60% | Herbicidal action in [%] 28 DAT against Lamium purpureum L. (post-emergence, single active compound (A5 series), g a.i./ha: r669 1, r670 450): 40% | Herbicidal action in [%] 28 DAT against Phalaris minor (post-emergence, single active compound (A5 series), g a.i./ha: r700 16, r701 450, r702 150): 40% | Herbicidal action in [%] 14 DAT against Poa annua L. (post-emergence, single active compound (A5 series), g a.i./ha: r710 16, r711 450, r712 150, r713 50): 30% | Herbicidal action in [%] 28 DAT against Lolium rigidum (post-emergence, single active compound, g a.i./ha: r679 16, r680 150, r681 50): 30% | Herbicidal action in [%] 14 DAT against Lolium rigidum (resistant bio type) (post-emergence, single active compound, g a.i./ha: r689 16, r690 450, r691 150, r692 50): 30% | Herbicidal action in [%] 28 DAT against Poa annua L. (post-emergence, single active compound, g a.i./ha: r721 16, r722 450): 20%
